The target of experiment [1] is T1, Full length human recombinant HDAC11 (Homo sapiens, UniProt Q96DB2).
T1 construct: Full length human recombinant HDAC6 and HDAC11 proteins were expressed in baculoviral system
T1 sequence (Q96DB2 1-347): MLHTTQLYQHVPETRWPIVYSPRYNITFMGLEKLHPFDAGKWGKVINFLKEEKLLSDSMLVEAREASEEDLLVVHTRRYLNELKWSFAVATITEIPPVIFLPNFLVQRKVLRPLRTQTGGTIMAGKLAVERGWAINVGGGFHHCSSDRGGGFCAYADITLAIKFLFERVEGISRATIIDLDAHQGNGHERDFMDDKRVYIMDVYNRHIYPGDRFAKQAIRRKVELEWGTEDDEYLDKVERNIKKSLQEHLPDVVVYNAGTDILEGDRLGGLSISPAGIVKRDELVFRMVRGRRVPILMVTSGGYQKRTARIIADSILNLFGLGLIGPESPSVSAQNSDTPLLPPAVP
Description: In vitro histone deacetylase assay, enzymatic HDAC11 (electrophoretic mobility shift assay). The settings on record: 10 nM HDAC11; 2 μM peptide substrate FAM-RHKK(tri-fluor-Ac)—NH2; 25° C.; 12 concentrations; read-out: HDAC11 Activity Range (IC50). It is filed as biochemical. On the procedure:
(§1) The enzymatic HDAC6 and HDAC11 assays were performed using electrophoretic mobility shift assay. Full length human recombinant HDAC6 and HDAC11 proteins were expressed in baculoviral system and purified by affinity chromatography. The enzymatic reactions were assembled in 384 well plates in a total volume of 25 μL in a reaction buffer composing: 100 mM HEPES, pH 7.5, 25 mM KCl, 0.1% bovine serum albumin, 0.01% Triton X-100, 1% DMSO (from compounds) 2 μM of the fluorescently labeled peptide substrate and enzyme. The enzymes were added at a final concentration of 1 nM for HDAC6, and 10 nM for HDAC11. The peptide substrate FAM-RHKK(Ac)—NH2 was used for HDAC6, and FAM-RHKK(tri-fluor-Ac)—NH2 for HDAC11. The compounds were tested at 12 concentrations spaced by 3× dilution intervals. Negative control samples (0%-inhibition in the absence of inhibitor) and positive control samples (100%-inhibition) were assembled in replicates of four in each assay plate. The reactions were incubated at 25° C. and quenched by the addition of 45 μL of termination buffer (100 mM HEPES, pH 7.5, 0.01% Triton X-100, 0.05% SDS).
(§2) The terminated assay plates were analyzed on LabChip® 3000 microfluidic electrophoresis instrument (Perkin Elmer/Caliper Life Sciences). The fluorescence intensity of the electrophoretically separated de-acetylated product and substrate peptide was measured. Activity in each sample was determined as the product to sum ratio (PSR): P/(S+P), where P is the peak height of the product peptide and S is the peak height of the substrate peptide. Percent inhibition (Pinh) is determined using following equation:
(§3) Pinh=(PSR0%−PSRinh)/(PSR0%−PSR100%)*100, where PSRinh is the product sum ratio in the presence of inhibitor, PSR0% is the average product sum ration in the absence of inhibitor and PSR100% is the average product sum ratio in 100%-inhibition control samples. The IC50 values of inhibitors were determined by fitting the %-inhibition curves with 4 parameter dose-response model using XLfit 4 software.
(§4) As set forth in Table-26 and Table-27, below, IC5o values are defined as follows: IC50≦0.1 μM (+++); IC50>0.1 μM and ≦0.5 μM (++); IC50>0.5 μM (+).

In experiment [2] the target is T2, Full length human recombinant HDAC6 (Homo sapiens, UniProt Q9UBN7).
T2 construct: Full length human recombinant HDAC6 and HDAC11 proteins were expressed in baculoviral system
T2 sequence (Q9UBN7 1-1215): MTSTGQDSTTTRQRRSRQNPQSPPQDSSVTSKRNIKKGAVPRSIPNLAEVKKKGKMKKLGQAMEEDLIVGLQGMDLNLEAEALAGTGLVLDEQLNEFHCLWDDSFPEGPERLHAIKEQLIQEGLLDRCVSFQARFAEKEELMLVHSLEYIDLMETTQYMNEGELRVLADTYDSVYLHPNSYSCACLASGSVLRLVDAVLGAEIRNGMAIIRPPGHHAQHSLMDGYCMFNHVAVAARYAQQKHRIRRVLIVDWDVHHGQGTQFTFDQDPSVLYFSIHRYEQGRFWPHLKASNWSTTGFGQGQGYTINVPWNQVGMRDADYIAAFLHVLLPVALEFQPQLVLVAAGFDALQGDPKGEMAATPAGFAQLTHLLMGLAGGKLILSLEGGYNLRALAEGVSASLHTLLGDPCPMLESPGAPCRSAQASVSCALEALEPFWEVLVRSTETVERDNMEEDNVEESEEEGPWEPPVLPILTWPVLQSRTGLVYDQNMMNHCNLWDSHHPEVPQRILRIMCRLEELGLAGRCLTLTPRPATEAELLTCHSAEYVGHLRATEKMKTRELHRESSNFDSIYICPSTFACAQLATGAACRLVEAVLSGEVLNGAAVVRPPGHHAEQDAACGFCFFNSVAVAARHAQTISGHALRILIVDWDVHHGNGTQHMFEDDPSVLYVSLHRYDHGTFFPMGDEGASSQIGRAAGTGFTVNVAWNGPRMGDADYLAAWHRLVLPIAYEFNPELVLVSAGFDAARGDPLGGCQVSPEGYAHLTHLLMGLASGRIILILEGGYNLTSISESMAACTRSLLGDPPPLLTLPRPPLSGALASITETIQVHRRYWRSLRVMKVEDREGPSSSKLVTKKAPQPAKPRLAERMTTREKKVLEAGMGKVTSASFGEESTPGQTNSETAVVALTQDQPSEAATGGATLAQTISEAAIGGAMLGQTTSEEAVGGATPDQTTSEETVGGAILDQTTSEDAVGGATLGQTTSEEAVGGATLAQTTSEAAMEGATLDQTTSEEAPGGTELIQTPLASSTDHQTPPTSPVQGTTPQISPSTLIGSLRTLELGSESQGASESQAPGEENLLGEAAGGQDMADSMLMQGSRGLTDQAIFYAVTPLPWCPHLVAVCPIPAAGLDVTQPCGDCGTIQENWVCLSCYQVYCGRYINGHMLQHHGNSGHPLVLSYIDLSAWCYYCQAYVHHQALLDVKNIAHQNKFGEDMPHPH
Description: In vitro histone deacetylase assay, enzymatic HDAC6 (electrophoretic mobility shift assay). It is filed as biochemical. The settings on record: 1 nM HDAC6; 2 μM peptide substrate FAM-RHKK(Ac)—NH2; 25° C.; 12 concentrations; read-out: HDAC6 Activity Range (IC50). How it is done:
as §1, §2, §3, §4
On the technique in general: A gel shift assay detects complexes by their altered migration in electrophoresis.

The term IC50 denotes the concentration at which inhibition is half-maximal. On to `O=C(NO)c1ccc2c(c1)CC1(CC2)CCN(C(=O)C2CCCCC2)C1` (stereo not shown) [Compound I-4, 1′-(cyclohexanecarbonyl)-N-hydroxy-3,4-dihydro-1H-spiro[naphthalene-2,3′-pyrrolidine]-7-carboxamide], for which the IC50 in experiment [1] was above 0.5 µM; in experiment [2], at most 0.1 µM.

As to `O=C(NO)c1ccc2c(c1)C[C@]1(CC2)CCN(Cc2ccccc2OC(F)F)C1=O` [Compound I-105, (R)-1′-(2-(difluoromethoxy)benzyl)-N-hydroxy-2′-oxo-3,4-dihydro-1H-spiro[naphthalene-2,3′-pyrrolidine]-7-carboxamide], the IC50 in experiment [1] and in experiment [2] was at most 0.1 µM each time.

For the compound `COCCn1c(N2CC[C@@]3(CCc4ccc(C(=O)NO)cc4C3)C2=O)nc2ccccc21` [Compound I-33, (S)—N-hydroxy-1′-(1-(2-methoxyethyl)-1H-benzo[d]imidazol-2-yl)-2′-oxo-3,4-dihydro-1H-spiro[naphthalene-2,3′-pyrrolidine]-7-carboxamide], the IC50 in experiment [1] was above 0.5 µM; in experiment [2] it was at most 0.1 µM.

Turning to `O=C(NO)c1ccc2c(c1)C[C@]1(CC2)CCN(c2cnc3ccccc3c2)C1=O` [Compound I-107, (R)—N-hydroxy-2′-oxo-1′-(quinolin-3-yl)-3,4-dihydro-1H-spiro[naphthalene-2, 3′-pyrrolidine]-7-carboxamide], the concentration for half-maximal inhibition (IC50) in experiment [1] and in experiment [2] was at most 0.1 µM each time.

With `O=C(NO)c1ccc2c(c1)C[C@@]1(CCNC1=O)CC2` [Compound I-48, (R)—N-hydroxy-2′-oxo-3,4-dihydro-1H-spiro[naphthalene-2,3′-pyrrolidine]-7-carboxamide], the concentration for half-maximal inhibition (IC50) in experiment [1] was above 0.5 µM; in experiment [2], at most 0.1 µM.

As for `O=C(NO)c1ccc2c(c1)CC1(CC2)CCN(C2CCCCC2)C1` (stereo not shown) [Compound I-5, 1′-cyclohexyl-N-hydroxy-3,4-dihydro-1H-spiro[naphthalene-2,3′-pyrrolidine]-7-carboxamide], the results for the IC50 in experiment [1] and in experiment [2] were above 0.5 µM and at most 0.1 µM, respectively.

On to `O=C(NO)c1ccc2c(c1)C[C@@]1(CC2)CCN(Cc2cnc(Cl)s2)C1=O` [Compound I-49, (S)-1′-((2-chlorothiazol-5-yl)methyl)-N-hydroxy-2′-oxo-3,4-dihydro-1H-spiro[naphthalene-2,3′-pyrrolidine]-7-carboxamide], for which the IC50 in experiment [1] was above 0.5 µM; in experiment [2] it was at most 0.1 µM.

Consider `Cc1ccc(CN2CC[C@]3(CCc4ccc(C(=O)NO)cc4C3)C2=O)cc1` [Compound I-123, (R)—N-hydroxy-1′-(4-methylbenzyl)-2′-oxo-3,4-dihydro-1H-spiro[naphthalene-2,3′-pyrrolidine]-7-carboxamide], for which the IC50 in experiment [1] is above 0.5 µM; in experiment [2], at most 0.1 µM.

Regarding `O=C(NO)c1ccc2c(c1)C[C@@]1(CC2)CCN(Cc2ccc(C(F)(F)F)c(F)c2)C1=O` [Compound I-124, (S)-1′-(3-fluoro-4-(trifluoromethyl)benzyl)-N-hydroxy-2′-oxo-3,4-dihydro-1H-spiro[naphthalene-2,3′-pyrrolidine]-7-carboxamide], the IC50 in experiment [1] and in experiment [2] was at most 0.1 µM each time.

Consider `O=C(NO)c1ccc2c(c1)C[C@]1(CC2)CCN(Cc2ccc(Cl)cc2)C1=O` [Compound I-38, (R)-1′-(4-chlorobenzyl)-N-hydroxy-2′-oxo-3,4-dihydro-1H-spiro[naphthalene-2,3′-pyrrolidine]-7-carboxamide], for which the IC50 in experiment [1] was above 0.5 µM; in experiment [2], at most 0.1 µM.

Consider `O=C(NO)c1ccc2c(c1)C[C@]1(CC2)CCN(Cc2cccc(Cl)c2)C1=O` [Compound I-101, (R)-1′-(3-chlorobenzyl)-N-hydroxy-2′-oxo-3,4-dihydro-1H-spiro[naphthalene-2,3′-pyrrolidine]-7-carboxamide], for which the IC50 in experiment [1] and in experiment [2] was at most 0.1 µM each time.

`COc1ccc(S(=O)(=O)N2CCC3(CCc4ccc(C(=O)NO)cc4C3)C2)cc1` (stereo not shown) [Compound I-2, N-hydroxy-1′-((4-methoxyphenyl)sulfonyl)-3,4-dihydro-1H-spiro[naphthalene-2,3′-pyrrolidine]-7-carboxamide]: the concentration for half-maximal inhibition (IC50) in experiment [1] was above 0.5 µM; in experiment [2] it was at most 0.1 µM.

As for `O=C(NO)c1ccc2c(c1)C[C@@]1(CC2)CCN(Cc2ccc(Cl)cc2)C1=O` [Compound I-37, (S)-1′-(4-chlorobenzyl)-N-hydroxy-2′-oxo-3,4-dihydro-1H-spiro[naphthalene-2,3′-pyrrolidine]-7-carboxamide], the IC50 in experiment [1] and in experiment [2] was at most 0.1 µM throughout.

For the compound `O=C(NO)c1ccc2c(c1)C[C@]1(CC2)CCN(Cc2c(Cl)cccc2Cl)C1=O` [Compound I-95, (R)-1′-(2,6-dichlorobenzyl)-N-hydroxy-2′-oxo-3,4-dihydro-1H-spiro[naphthalene-2,3′-pyrrolidine]-7-carboxamide], the results for the 50% inhibitory concentration (IC50) in experiment [1] and in experiment [2] were above 0.5 µM and at most 0.1 µM, respectively.

For `O=C(NO)c1ccc2c(c1)C[C@]1(CC2)CCN(Cc2ccccc2OC(F)(F)F)C1=O` [Compound I-90, (R)—N-hydroxy-2′-oxo-1′-(2-(trifluoromethoxy)benzyl)-3,4-dihydro-1H-spiro[naphthalene-2,3′-pyrrolidine]-7-carboxamide], the IC50 in experiment [1] and in experiment [2] was at most 0.1 µM each time.

For the compound `O=C(NO)c1ccc2c(c1)C[C@]1(CC2)CCN(c2ccc(Oc3ccccc3)cc2)C1=O` [Compound I-106, (R)—N-hydroxy-2′-oxo-1′-(4-phenoxyphenyl)-3,4-dihydro-1H-spiro[naphthalene-2,3′-pyrrolidine]-7-carboxamide], the half-inhibitory concentration (IC50) in experiment [1] and in experiment [2] was at most 0.1 µM throughout.

With `O=C(NO)c1ccc2c(c1)C[C@]1(CC2)CCN(c2cccc3c2OCC3)C1=O` [Compound I-108, (R)-1′-(2,3-dihydrobenzofuran-7-yl)-N-hydroxy-2′-oxo-3,4-dihydro-1H-spiro[naphthalene-2,3′-pyrrolidine]-7-carboxamide], the IC50 in experiment [1] was above 0.5 µM; in experiment [2] it was at most 0.1 µM.
